Experimental findings from PMC11995724, “Antibiotic target discovery by integrated phenotypic and activity-based profiling of electrophilic fragments” (Cell chemical biology, 2025) are described below.

This data set can be described thus: in vitro. The following applies: human, hek293t cells.
`COc1ccc2[nH]cc(C3=CCN(C(=O)C=CCN(C)C)CC3)c2c1` [10-F03, 4-(dimethylamino)-1-[4-(5-methoxy-1H-indol-3-yl)-1,2,3,6-tetrahydropyridin-1-yl]but-2-en-1-one]: the viability at 48 h, 25 µM is 92.2%.
As for `CCN(c1ccc(C(=O)CCl)cc1)S(C)(=O)=O` [10-F04, N-[4-(2-chloroacetyl)phenyl]-N-ethylmethanesulfonamide], the figure is 22.5%; as for `Cc1cc(C(=O)CCl)c(C)n1-c1ccon1` [10-F06, 2-chloro-1-[2,5-dimethyl-1-(1,2-oxazol-3-yl)-1H-pyrrol-3-yl]ethan-1-one], 1.56%.
The value for `Cn1c(=O)oc2cc(C(=O)CCl)ccc21` [10-F07, 6-(2-chloroacetyl)-3-methyl-2,3-dihydro-1,3-benzoxazol-2-one] was 110%; that for `CC(C)Cn1c(N)c(C(=O)CCl)c(=O)[nH]c1=O` [10-F08, 6-amino-5-(2-chloroacetyl)-1-(2-methylpropyl)-1,2,3,4-tetrahydropyrimidine-2,4-dione] was 91.2%.
The value for `C#CCN1C(=O)C=CC1=O` [10-F09, 1-(prop-2-yn-1-yl)-2,5-dihydro-1H-pyrrole-2,5-dione] was 98.4%; that for `N#Cc1ccc(C(=O)CCl)cc1` [10-F10, 4-(2-chloroacetyl)benzonitrile] was 49%; that for `Cc1ccc(NC(=O)N2CCSSCC2)c(C)c1` [10-F11, N-(2,4-dimethylphenyl)-1,2,5-dithiazepane-5-carboxamide] was 102%.
Regarding `CCOc1ccc(C(=O)CCl)cc1` [10-F12, 2-chloro-1-(4-ethoxyphenyl)ethan-1-one], the viability at 48 h, 25 µM turned out to be 1.95%.
As for `Cc1ccc(C)c(N2C(=O)C=CC2=O)c1` [10-F13, 1-(2,5-dimethylphenyl)-2,5-dihydro-1H-pyrrole-2,5-dione], the figure is 109%; as for `N#CC(C(=O)CCl)=C1NC(C23CC4CC(CC(C4)C2)C3)=CS1` [10-F14, 2-[4-(adamantan-1-yl)-2,3-dihydro-1,3-thiazol-2-ylidene]-4-chloro-3-oxobutanenitrile], 61.8%; as for `O=C1C=CC(=O)N1c1ccc(F)cc1F` [10-F15, 1-(2,4-difluorophenyl)-2,5-dihydro-1H-pyrrole-2,5-dione], 89.5%.
As to `Cc1cc(C(=O)CCl)c(C)n1CCc1cccs1` [10-F16, 2-chloro-1-{2,5-dimethyl-1-[2-(thiophen-2-yl)ethyl]-1H-pyrrol-3-yl}ethan-1-one], the viability at 48 h, 25 µM was determined as 0.304%.
The value for `O=C1C=CC(=O)N1c1ccc(Oc2ccccc2)cc1` [10-F17, 1-(4-phenoxyphenyl)-2,5-dihydro-1H-pyrrole-2,5-dione] was 73.6%; that for `CCc1ccc(C(=O)CCl)cc1` [10-F18, 2-chloro-1-(4-ethylphenyl)ethan-1-one] was 1.07%; that for `CN(c1ccc(C(=O)CCl)cc1)S(C)(=O)=O` [10-F19, N-[4-(2-chloroacetyl)phenyl]-N-methylmethanesulfonamide] was 74%.
As for `Cc1ccc(C(=O)C(C)Cl)cc1` (stereo not shown) [10-F20, 2-chloro-1-(4-methylphenyl)propan-1-one], the figure is 80.5%; as for `CC(C)c1noc2ncc(C(=O)N3CCSSCC3)cc12` [10-F21, 5-[3-(propan-2-yl)-[1,2]oxazolo[5,4-b]pyridine-5-carbonyl]-1,2,5-dithiazepane], 86.3%.
Turning to `CC(Cl)C(=O)c1c(N)n(C)c(=O)n(C)c1=O` (stereo not shown) [10-F22, 6-amino-5-(2-chloropropanoyl)-1,3-dimethyl-1,2,3,4-tetrahydropyrimidine-2,4-dione], the viability at 48 h, 25 µM was found to be 87.8%.
The value for `O=C1C=CC(=O)N1CCc1ccccc1F` [10-G03, 1-[2-(2-fluorophenyl)ethyl]-2,5-dihydro-1H-pyrrole-2,5-dione] was 11.2%; that for `Cc1cc(C(=O)CCl)c(C)n1-c1ccc(OC(F)(F)F)cc1` [10-G04, 2-chloro-1-{2,5-dimethyl-1-[4-(trifluoromethoxy)phenyl]-1H-pyrrol-3-yl}ethan-1-one] was 0.243%; that for `Cc1csc(-n2c(C)cc(C(=O)CCl)c2C)n1` [10-G05, 2-chloro-1-[2,5-dimethyl-1-(4-methyl-1,3-thiazol-2-yl)-1H-pyrrol-3-yl]ethan-1-one] was 72.5%.
As for `CCOc1ccc(C(=O)C(C)Cl)cc1` (stereo not shown) [10-G06, 2-chloro-1-(4-ethoxyphenyl)propan-1-one], the figure is 89.3%; as for `CN1C(=O)Cc2cc(C(=O)CCl)ccc21` [10-G07, 5-(2-chloroacetyl)-1-methyl-2,3-dihydro-1H-indol-2-one], 46.1%; as for `CN1C(=C(C#N)C(=O)CCl)Sc2ccccc21` [10-G08, 4-chloro-2-(3-methyl-2,3-dihydro-1,3-benzothiazol-2-ylidene)-3-oxobutanenitrile], 77.5%.
Regarding `O=C1C=CC(=O)N1c1cc(C(F)(F)F)ccc1Cl` [10-G09, 1-[2-chloro-5-(trifluoromethyl)phenyl]-2,5-dihydro-1H-pyrrole-2,5-dione], the viability at 48 h, 25 µM stood at 58.9%.
Regarding `CNC(=O)c1cc(C(=O)CCl)cn1C` [10-G10, 4-(2-chloroacetyl)-N,1-dimethyl-1H-pyrrole-2-carboxamide], the viability at 48 h, 25 µM came out at 1.73%.
As to `CN(C)CCN1C(=O)C=CC1=O` [10-G11, 1-[2-(dimethylamino)ethyl]-2,5-dihydro-1H-pyrrole-2,5-dione], the viability at 48 h, 25 µM worked out at 96.9%.
With `COC(=O)C(C(=O)CCl)=C1Nc2ccccc2N1` [10-G12, methyl 4-chloro-2-(2,3-dihydro-1H-1,3-benzodiazol-2-ylidene)-3-oxobutanoate], the viability at 48 h, 25 µM was found to be 48.7%.
Consider `COC(=O)c1cc(C(=O)CCl)c(C)o1` [10-G13, methyl 4-(2-chloroacetyl)-5-methylfuran-2-carboxylate], for which the viability at 48 h, 25 µM turned out to be 76.4%.
For the compound `Cc1cc(C(=O)CCl)c(C)n1CCc1ccc(F)cc1` [10-G14, 2-chloro-1-{1-[2-(4-fluorophenyl)ethyl]-2,5-dimethyl-1H-pyrrol-3-yl}ethan-1-one], the viability at 48 h, 25 µM was 0.499%.
Regarding `O=C(CCl)Cc1ccc(F)cc1` [10-G15, 1-chloro-3-(4-fluorophenyl)propan-2-one], the viability at 48 h, 25 µM was 73.7%.
As for `O=C(CCl)c1cc2c3c(c1)CC(=O)N3CCC2` [10-G16, 6-(2-chloroacetyl)-1-azatricyclo[6.3.1.0,4,12]dodeca-4(12),5,7-trien-2-one], the figure is 1.58%.
For `O=C(CCl)Cc1ccc(F)cc1F` [10-G17, 1-chloro-3-(2,4-difluorophenyl)propan-2-one], the viability at 48 h, 25 µM was found to be 36.8%.
The value for `COc1ccc(C(=O)CCl)c(OC)c1` [10-G18, 2-chloro-1-(2,4-dimethoxyphenyl)ethan-1-one] was 66.7%; that for `CC(C)(C)c1ccc(CC(=O)CCl)cc1` [10-G19, 1-(4-tert-butylphenyl)-3-chloropropan-2-one] was 1.53%; that for `O=C(CCl)c1ccc(Oc2ccccc2)cc1` [10-G20, 2-chloro-1-(4-phenoxyphenyl)ethan-1-one] was 0.299%.
As for `CN1C=CC(=C(C#N)C(=O)CCl)C=C1` [10-G21, 4-chloro-2-(1-methyl-1,4-dihydropyridin-4-ylidene)-3-oxobutanenitrile], the figure is 1.3%.
Take `Cc1cc(C(=O)O)ccc1N1C(=O)C=CC1=O` [10-G22, 4-(2,5-dioxo-2,5-dihydro-1H-pyrrol-1-yl)-3-methylbenzoic acid]: the viability at 48 h, 25 µM was determined as 107%.
Consider `COC(=O)c1c(C(=O)CCl)c(C)n(C2CC2)c1C` [10-H03, methyl 4-(2-chloroacetyl)-1-cyclopropyl-2,5-dimethyl-1H-pyrrole-3-carboxylate], for which the viability at 48 h, 25 µM is 93.4%.
Turning to `CC(=O)N(C)Cc1ccc(C(=O)CCl)cc1` [10-H04, N-{[4-(2-chloroacetyl)phenyl]methyl}-N-methylacetamide], the viability at 48 h, 25 µM turned out to be 64%.
With `Cc1cccc(N2C(=O)C=CC2=O)c1C` [10-H05, 1-(2,3-dimethylphenyl)-2,5-dihydro-1H-pyrrole-2,5-dione], the viability at 48 h, 25 µM came out at 94.3%.
For `O=C(CCl)c1ccc(CC(=O)N2CCOCC2)s1` [10-H06, 2-chloro-1-{5-[2-(morpholin-4-yl)-2-oxoethyl]thiophen-2-yl}ethan-1-one], the viability at 48 h, 25 µM was found to be 71.7%.
With `COc1ccc(CCN2C(=O)C=CC2=O)cc1OC` [10-H07, 1-[2-(3,4-dimethoxyphenyl)ethyl]-2,5-dihydro-1H-pyrrole-2,5-dione], the viability at 48 h, 25 µM was determined as 101%.
The value for `CSc1cc(C(=O)CCl)ccc1NC(C)=O` [10-H08, N-[4-(2-chloroacetyl)-2-(methylsulfanyl)phenyl]acetamide] was 8.39%; that for `Cc1cccc2[nH]cc(C(=O)CCl)c12` [10-H09, 2-chloro-1-(4-methyl-1H-indol-3-yl)ethan-1-one] was 5.75%; that for `CC(C)n1ccnc1C(=O)CCl` [10-H10, 2-chloro-1-[1-(propan-2-yl)-1H-imidazol-2-yl]ethan-1-one] was 20.4%.
As to `O=C(Nc1cc(F)ccc1F)N1CCSSCC1` [10-H11, N-(2,5-difluorophenyl)-1,2,5-dithiazepane-5-carboxamide], the viability at 48 h, 25 µM worked out at 94.9%.
Regarding `CCCn1c(N)c(C(=O)CCl)c(=O)n(C)c1=O` [10-H12, 6-amino-5-(2-chloroacetyl)-3-methyl-1-propyl-1,2,3,4-tetrahydropyrimidine-2,4-dione], the viability at 48 h, 25 µM came out at 86.3%.
Take `COc1cc([N+](=O)[O-])ccc1N1C(=O)C=CC1=O` [10-H13, 1-(2-methoxy-4-nitrophenyl)-2,5-dihydro-1H-pyrrole-2,5-dione]: the viability at 48 h, 25 µM worked out at 97.6%.
The value for `CCc1ccc(CC)c(C(=O)CCl)c1` [10-H14, 2-chloro-1-(2,5-diethylphenyl)ethan-1-one] was 33.6%; that for `O=C1C=CC(=O)N1c1cc([N+](=O)[O-])ccc1Cl` [10-H15, 1-(2-chloro-5-nitrophenyl)-2,5-dihydro-1H-pyrrole-2,5-dione] was 126%.

The term viability denotes a read-out of living cells in per cent, often relative to untreated cells.
